Data published in PubChem BioAssay (NCI).
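Cells were grown in 96-well plates and exposed to each compound for 48 hours at five concentrations; endpoints were interpolated linearly between bracketing concentrations, or set to the highest concentration if not reached. The concentration for 50% growth inhibition is given as GI50. Definition used: TGI = concentration required for complete inhibition of growth.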

Experiments:
Test in all cases: DTP human tumour cell line panel, 48 h
MDA-MB-231 breast = tested on: MDA-MB-231 breast
KM12 colon = tested on: KM12 colon
LOX IMVI melanoma = tested on: LOX IMVI melanoma
OVCAR-3 ovarian = tested on: OVCAR-3 ovarian
RXF 393 renal = tested on: RXF 393 renal
OVCAR-8 ovarian = tested on: OVCAR-8 ovarian
SN12C renal = tested on: SN12C renal
NCI-H23 lung = tested on: NCI-H23 lung
SK-MEL-2 melanoma = tested on: SK-MEL-2 melanoma
MALME-3M melanoma = tested on: MALME-3M melanoma
NCI/ADR-RES ovarian = tested on: NCI/ADR-RES ovarian
HT29 colon = tested on: HT29 colon
A549 NSCLC = tested on: A549 NSCLC
UO-31 renal = tested on: UO-31 renal
COLO 205 colon = tested on: COLO 205 colon
DU-145 prostate = tested on: DU-145 prostate
CAKI-1 renal = tested on: CAKI-1 renal
K-562 leukemia = tested on: K-562 leukemia
MDA-MB-435 = tested on: MDA-MB-435
SF-268 CNS = tested on: SF-268 CNS
TK-10 renal = tested on: TK-10 renal
U251 CNS = tested on: U251 CNS
HCT-116 colon = tested on: HCT-116 colon
SNB-75 CNS = tested on: SNB-75 CNS
RPMI-8226 leukemia = tested on: RPMI-8226 leukemia
UACC-62 melanoma = tested on: UACC-62 melanoma
T-47D breast = tested on: T-47D breast
ACHN renal = tested on: ACHN renal
HOP-62 NSCLC = tested on: HOP-62 NSCLC
MCF7 breast = tested on: MCF7 breast
OVCAR-4 ovarian = tested on: OVCAR-4 ovarian
NCI-H460 lung = tested on: NCI-H460 lung
UACC-257 melanoma = tested on: UACC-257 melanoma
OVCAR-5 ovarian = tested on: OVCAR-5 ovarian
A498 renal = tested on: A498 renal
NCI-H226 lung = tested on: NCI-H226 lung
MOLT-4 leukemia = tested on: MOLT-4 leukemia
NCI-H522 lung = tested on: NCI-H522 lung
BT-549 breast = tested on: BT-549 breast
SF-539 CNS = tested on: SF-539 CNS
786-0 renal = tested on: 786-0 renal
SK-MEL-5 melanoma = tested on: SK-MEL-5 melanoma
HS 578T breast = tested on: HS 578T breast
PC-3 prostate = tested on: PC-3 prostate
SK-MEL-28 melanoma = tested on: SK-MEL-28 melanoma
SF-295 CNS = tested on: SF-295 CNS
IGROV1 ovarian = tested on: IGROV1 ovarian
SR leukemia = tested on: SR leukemia
HL-60(TB) leukemia = tested on: HL-60(TB) leukemia
SK-OV-3 ovarian = tested on: SK-OV-3 ovarian
SW-620 colon = tested on: SW-620 colon
HOP-92 NSCLC = tested on: HOP-92 NSCLC
HCT-15 colon = tested on: HCT-15 colon
SNB-19 CNS = tested on: SNB-19 CNS
M14 melanoma = tested on: M14 melanoma
HCC-2998 colon = tested on: HCC-2998 colon

For Nc1c(C(=O)c2cccc(C#CCN3CCOCC3)c2)cnn1-c1ccc(F)cc1, the GI50 (MDA-MB-231 breast) was > 25 µM, the TGI (MDA-MB-231 breast) was > 25 µM and the GI50 (KM12 colon) was 8.29 µM. The TGI (KM12 colon) was > 25 µM, the GI50 (LOX IMVI melanoma) was > 25 µM and the TGI (LOX IMVI melanoma) was > 25 µM. The GI50 (OVCAR-3 ovarian) was > 23.1 µM, the TGI (OVCAR-3 ovarian) was > 25 µM and the GI50 (RXF 393 renal) was > 25 µM. The TGI (RXF 393 renal) was > 25 µM, the GI50 (OVCAR-8 ovarian) was > 25 µM and the TGI (OVCAR-8 ovarian) was > 25 µM. For the same compound, the GI50 (SN12C renal) was > 25 µM, the TGI (SN12C renal) was > 25 µM and the GI50 (NCI-H23 lung) was > 25 µM. The TGI (NCI-H23 lung) was > 25 µM, the GI50 (SK-MEL-2 melanoma) was > 15.3 µM and the TGI (SK-MEL-2 melanoma) was > 25 µM. The GI50 (MALME-3M melanoma) was > 12.4 µM, the TGI (MALME-3M melanoma) was > 25 µM and the GI50 (NCI/ADR-RES ovarian) was 8.23 µM. The TGI (NCI/ADR-RES ovarian) was > 25 µM, the GI50 (HT29 colon) was 10.9 µM and the TGI (HT29 colon) was > 25 µM. The GI50 (A549 NSCLC) was > 16.6 µM, the TGI (A549 NSCLC) was > 25 µM and the GI50 (UO-31 renal) was > 25 µM. The TGI (UO-31 renal) was > 25 µM, the GI50 (COLO 205 colon) was 7.97 µM and the TGI (COLO 205 colon) was > 25 µM. The GI50 (DU-145 prostate) was > 25 µM, the TGI (DU-145 prostate) was > 25 µM and the GI50 (CAKI-1 renal) was > 16 µM. The TGI (CAKI-1 renal) was > 25 µM, the GI50 (K-562 leukemia) was 7.91 µM and the TGI (K-562 leukemia) was > 25 µM. The GI50 (MDA-MB-435) was 4.41 µM, the TGI (MDA-MB-435) was > 17.4 µM and the GI50 (SF-268 CNS) was > 25 µM. The TGI (SF-268 CNS) was > 25 µM, the GI50 (TK-10 renal) was > 23.4 µM and the TGI (TK-10 renal) was > 25 µM. For the same compound, the GI50 (U251 CNS) was > 21 µM, the TGI (U251 CNS) was > 25 µM and the GI50 (HCT-116 colon) was > 22.8 µM. The TGI (HCT-116 colon) was > 25 µM, the GI50 (SNB-75 CNS) was > 6.15 µM and the TGI (SNB-75 CNS) was > 25 µM. For the same compound, the GI50 (RPMI-8226 leukemia) was > 20.8 µM, the TGI (RPMI-8226 leukemia) was > 25 µM and the GI50 (UACC-62 melanoma) was 19.6 µM. The TGI (UACC-62 melanoma) was > 25 µM, the GI50 (T-47D breast) was 8.83 µM and the TGI (T-47D breast) was > 25 µM. For the same compound, the GI50 (ACHN renal) was > 25 µM, the TGI (ACHN renal) was > 25 µM and the GI50 (HOP-62 NSCLC) was > 25 µM. For the same compound, the TGI (HOP-62 NSCLC) was > 25 µM, the GI50 (MCF7 breast) was 11.7 µM and the TGI (MCF7 breast) was > 25 µM. The GI50 (OVCAR-4 ovarian) was > 25 µM, the TGI (OVCAR-4 ovarian) was > 25 µM and the GI50 (NCI-H460 lung) was > 16.5 µM. For the same compound, the TGI (NCI-H460 lung) was > 25 µM, the GI50 (UACC-257 melanoma) was > 18.6 µM and the TGI (UACC-257 melanoma) was > 25 µM. For the same compound, the GI50 (OVCAR-5 ovarian) was > 25 µM, the TGI (OVCAR-5 ovarian) was > 25 µM and the GI50 (A498 renal) was 11.1 µM. For the same compound, the TGI (A498 renal) was > 25 µM, the GI50 (NCI-H226 lung) was > 20.4 µM and the TGI (NCI-H226 lung) was > 25 µM. The GI50 (MOLT-4 leukemia) was > 25 µM, the TGI (MOLT-4 leukemia) was > 25 µM and the GI50 (NCI-H522 lung) was > 10.9 µM. The TGI (NCI-H522 lung) was > 23.6 µM, the GI50 (BT-549 breast) was > 25 µM and the TGI (BT-549 breast) was > 25 µM. The GI50 (SF-539 CNS) was > 25 µM, the TGI (SF-539 CNS) was > 25 µM and the GI50 (786-0 renal) was > 25 µM. For the same compound, the TGI (786-0 renal) was > 25 µM, the GI50 (SK-MEL-5 melanoma) was 8.88 µM and the TGI (SK-MEL-5 melanoma) was > 25 µM. The GI50 (HS 578T breast) was > 25 µM, the TGI (HS 578T breast) was > 25 µM and the GI50 (PC-3 prostate) was 15.4 µM. The TGI (PC-3 prostate) was > 25 µM, the GI50 (SK-MEL-28 melanoma) was > 25 µM and the TGI (SK-MEL-28 melanoma) was > 25 µM. For the same compound, the GI50 (SF-295 CNS) was > 6.3 µM, the TGI (SF-295 CNS) was > 25 µM and the GI50 (IGROV1 ovarian) was > 17.2 µM. For the same compound, the TGI (IGROV1 ovarian) was > 25 µM, the GI50 (SR leukemia) was 4.09 µM and the TGI (SR leukemia) was > 25 µM. For the same compound, the GI50 (HL-60(TB) leukemia) was 16.4 µM, the TGI (HL-60(TB) leukemia) was > 25 µM and the GI50 (SK-OV-3 ovarian) was > 25 µM. The TGI (SK-OV-3 ovarian) was > 25 µM, the GI50 (SW-620 colon) was 9.28 µM and the TGI (SW-620 colon) was > 25 µM. The GI50 (HOP-92 NSCLC) was > 13 µM, the TGI (HOP-92 NSCLC) was > 25 µM and the GI50 (HCT-15 colon) was 11.2 µM. The TGI (HCT-15 colon) was > 25 µM, the GI50 (SNB-19 CNS) was > 25 µM and the TGI (SNB-19 CNS) was > 25 µM. For the same compound, the GI50 (M14 melanoma) was > 25 µM, the TGI (M14 melanoma) was > 25 µM and the GI50 (HCC-2998 colon) was > 25 µM. For the same compound, the TGI (HCC-2998 colon) was > 25 µM.
